Measured values published in US10434128B2, “Composition comprising Ulmi cortex extracts for inhibiting ovotoxicity” (DONGGUK UNIVERSITY GYEONGJU CAMPUS INDUSTRY-ACADEMY …, priority 2017, dated 2019).

Columns and labels:
CHO-K1 cells = test: Cell morphology observation, VCD-induced cell damage; type: cell-based, Chinese hamster; settings: 1.5 mM VCD, 24 hours
Description: Through cell morphological changes, it was confirmed whether the Ulmi cortex extract protected CHO-K1 cells from cell damage induced by VCD.
First, cells were distributed into a 96-well plate at a density of 1×10^4 cells/well, and the cells were cultured until the next day, followed by serum starvation for 4 hours. Subsequently, the cells were pre-treated with 300 μg/ml of the Ulmi cortex extract for 4 hours and treated with 1.5 mM VCD, and then incubated at 37° C. under 5% CO2 for 24 hours, and the cells were observed using an optical microscope (Nikon, Japan).

PARP and caspase-3 = test: Western blot of apoptosis proteins in CHO-K1 cells with VCD-induced ovotoxicity; type: cell-based, Chinese hamster; settings: 1.5 mM VCD; compared to a control
Description: As confirmed in Example 4, when CHO-K1 cells were treated with VCD, apoptosis occurred. To examine an effect of pretreatment with the Ulmi cortex extract (300 μg/ml), proteins associated with apoptosis, i.e., poly(ADP-ribosyl) polymerase (PARP) and caspase-3, were identified through western blot analysis.
As described in Example 5-1, a protein sample was collected from CHO-K1 cells pretreated with 300 μg/ml of the Ulmi cortex extract for […] and treated with 1.5 mM VCD. For this, the cells treated with VCD were washed three times with PBS, RIPA buffer was added thereto, and the resulting cells were allowed to react at 4° C. for 30 minutes and then centrifuged at 12,000 rpm for 30 minutes to collect a supernatant, and proteins were extracted therefrom. Subsequently, the same amount of the proteins were separated on a sodium dodecyl sulfate-polyacrylamide gel electrophoresis (SDS-PAGE), and then transferred to a PVDF membrane. To block non-specific binding, the membrane was treated with a blocking buffer (5% skim milk) for 1 hour, and washed with a PBST solution containing 0.1% Tween 20. Thereafter, the membrane was allowed to react with primary antibodies against PARP and caspase-3 at 4° C. overnight. […]

B6C3F1 female mice = test: VCD-induced premature ovarian failure animal model; settings: VCD 160 mg/kg/day i.p. five times a week, 2 weeks
Description: B6C3F1 female mice at the age of 3 weeks (10 g to 12 g) from the same date of birth (DOB) as an experimental animal were purchased from the Central Lab Animal Inc., were adapted to a laboratory environment while sufficiently fed feed and water, and then used in an experiment. The laboratory environment was maintained at a temperature of 22±2° C. and a 12-hour day/12-hour night cycle was maintained until the experiment was completed. […]
Body weight changes were observed every week, based on the body weight measured on the start day of the experiment (day 1). […] One ovary was removed and the ovarian weight was measured and an ovarian weight index was calculated as a ratio of the measured ovarian weight with respect to the body weight immediately before sacrifice.

C1CC2OC2CC1C1CO1 (centres unmarked) [VCD, 4-vinylcyclohexene diepoxide]
cell morphology, group treated only with VCD (CHO-K1 cells): apoptosis was observed | proform band of PARP, treated only with VCD (PARP and caspase-3): decreased | proform band of caspase-3, treated only with VCD (PARP and caspase-3): became pale | ovarian weight index, negative control (VCD) vs normal group (B6C3F1 female mice): significant decrease compared to the normal group | sizes of the ovary and the uterus, negative control (VCD) (B6C3F1 female mice): significantly decreased
